Measured values taken from patent publication US20100042137A1, “ACUPUNCTURE AND ACUPRESSURE THERAPIES” (priority 2008, published 2010).
Where two headings read alike, the source gives them in different places.

What was measured:
Patients with Arthritis = test: Treatment of patients with arthritis by injection at or near acupuncture points; pain level x/10; format: in vivo, human
Source text: Treatment of Patients with Arthritis
(i) A patient presented with a 5/10 pain from severe rheumatoid arthritis.
(ii) A patient presented with an 8/10 pain from severe rheumatoid arthritis.
(iii) A patient presented with 8/10 pain from severe rheumatoid arthritis with diffuse joint stiffness, swelling and tenderness.
(i) A patient presented with a pain level of 10/10 from cervical strain due to seronegative rheumatoid arthritis.
(ii) A patient presented with a 7.5/10 pain globally from a seronegative arthritis (unspecified).
A patient presented with a 5/10 pain from bilateral post-traumatic subtalar arthritis.

human patients [1] = test: Treatment with epinephrine or Restylane at specific influential points, also in combination with magnets; pain level x/10; format: in vivo
Source text: (i) A patient presented with a 6/10 left ankle pain from gout.
(ii) A patient presented with an 8/10 pain and stiffness from Parkinson's disease.
(iii) A patient presented with a 5/10 neck pain and stiffness.
(iv) A patient presented with a 5/10 neck and upper back pain from syringomyelia.
(v) A patient presented with a 5.8/10 right shoulder pain from rotator cuff tendinopathy.
(vi) A patient presented with a 2/10 shoulder pain from a rotator cuff tendinopathy.
(vii) A patient presented with a 10/10 frontal sinus headache which was present for over 1 week.
(viii) A patient presented with a 4/10 tension headache over the temples and neck with photophobia on which is present 2-3 times a week on average.
(ix) A patient presented with 10/10 pain from bilateral tarsal tunnel syndrome.
(x) A patient with chronic radicular left leg pain 6/10.
(i) A patient presented with a 5/10 pain globally especially in the low back.
(ii) A patient presented with a 5/10 pain in the mid back who had never had acupuncture before.
(iii) A patient presented with a 10/10 pain in an amputee with a compound fracture of their femur.
(i) A patient presented with common peroneal neuropathy with a pain level of 9/10.
(ii) Patient with 9/10 back pain from sacroilitis.

human patients [2] = system: human patients
[3] = system: Patients with Multiple Indications; test: Treatment of patients with multiple indications by injection; pain level x/10; format: in vivo, human; details: for Pain level After: 2 cc injected
[4] = system: Patients with Back, Shoulder, Leg Pain; test: Treatment of patients with back, shoulder, leg pain by injection; pain level x/10; format: in vivo, human
Source text: (iv) A patient presented initially with 9/10 mechanical low back pain.
(v) A patient with an L5 radiculopathy complained of a 6/10 low back pain which was unrelieved by trigger point injections, sacroiliac injections and epidurals.
(vii) A patient presented with a 8/10 back pain from lumbar facet arthropathy.
(viii) A patient presented with an 8/10 back pain with radiation down leg from lumbar radiculopathy.
(xii) A patient presented with a 9/10 low back pain and 8/10 shoulder and neck pain.
(ii) A patient presented with a 4/10 pain due to sacroiliac strain.
(ii) A patient presented with a 4/10 neck pain from cervical degenerative disc disease.
(iii) A patient presented with a 9/10 pain globally from cervical spondylotic myelopathy.

human patients [5] = test: Treatments with saline; pain level x/10; format: in vivo; details: general observation in parenthesis
Source text: (i) A patient presented with a 2/10 rotator cuff tendinopathy.
(ii) 5/10 sacroiliac strain.
(iv) A patient presented with a 6/10 pain globally from severe systemic lupus erthymatosis (SLE).
(v) A patient presented with a 7/10 pain right medial knee pain from pes anserine bursitis.

human patients [6] = system: human patients; remark: listed apart in the source
Source text: (i) 10/10 pain from sacroilitis.
(ii) 5/10 pain from trochanteric bursitis.
(iii) 7/10 pain from Morton's neuroma.
(iv) 5/10 pain from lateral epicondylitis.

CCN(CC)CC(=O)Nc1c(C)cccc1C [lidocaine]
pain after injection (Patients with Arthritis; 6/10 shoulder pain (glenohumeral arthritis) and 7/10 low back pain (lumbar stenosis), 2 cc into GH joints bilaterally): complete pain relief | pain after injection (Patients with Arthritis; 9/10 elbow pain (radiohumeral arthritis) and 10/10 mechanical low back pain, 2 cc into GH joints near Lu 1 bilaterally): complete relief | pain after injection (Patients with Arthritis; bilateral post-traumatic subtalar arthritis, 5/10 before, 2 cc bilaterally s.c. over GH joints near Lu 1): disappearance of all pain | pain level after injection (Patients with Arthritis; cervical strain due to seronegative rheumatoid arthritis, 10/10 before, 1 cc bilaterally s.c. over GH joints): 4/10 | pain after injection (Patients with Arthritis; right glenohumeral osteoarthritis 9/10 and 8/10 low back pain (sacroiliac strain), 2 ccs bilaterally into GH joints, agent not given, heading: Injection of Lidocaine): total relief | duration of pain relief (Patients with Arthritis; same patient as E13): 3 days | duration of pain relief (Patients with Arthritis; same patient as E15): 1 week | pain level after injection (Patients with Arthritis; same patient, 4/10 before, another 2 cc lidocaine bilaterally s.c. over GH joints): 3/10 | pain after injection (Patients with Arthritis; seronegative arthritis (unspecified), 7.5/10 globally before, 2 cc bilaterally s.c. over GH joints): disappearance of all pain | pain after injection (Patients with Arthritis; severe RA, s.c. over GH joints bilaterally): resolution of all pain | pain after injection (Patients with Arthritis; severe rheumatoid arthritis, 5/10 before, 2 cc bilaterally s.c. over glenohumeral (GH) joints near Lu 1): disappearance of all pain and return of mobility | pain after injection (human patients [1]; 9/10 back pain from sacroilitis, 0.1 cc lidocaine 2% bilaterally s.c. over sacroiliac joints (B 47, B 23)): disappearance of all back pain | pain after therapeutic magnets put over the sites of injection (human patients [1]; same patient): again disappeared | time after which the pain started to come back (human patients [1]; same patient): 2 days | drooling after injection (human patients [2]; excessive drooling (sialorrhea), 0.1 cc lidocaine 2% near Li 4): cessation of drooling | effect on sleepiness (human patients [2]; narcolepsy, falling asleep in the office, 0.1 cc 2% lidocaine near Li 4): noticeably woke patient up | duration of cessation of drooling (human patients [2]; same patient): 2 weeks | duration of effect (human patients [2]; same patient): lasted throughout the day | shoulder pain level after injection ([3]; 6/10 bilateral shoulder pain, glenohumeral arthritis, 4 ccs into GH joints bilaterally): 1/10 | pain relief ([3]; 6/10 shoulder pain (bilateral rotator cuff tendinopathy) and 6/10 low back pain (lumbar spinal stenosis), 2 cc bilaterally into GH joints): about 50% | pain level after injection, right side of the body ([3]; 10/10 post surgical pain from tracheostomy and 6/10 coccygodynia, 2 cc s.c. bilaterally over GH joint): 2/10 | Pain level After ([3]; Cervical spondylotic myelopathy, Before 9/10): 1/10 | Pain level After ([3]; Chronic pelvic pain of non menstrual origin, Before 6/10): 0 | Pain level After ([3]; Dermatomyositis, Before 6/10): 2/10 | Pain level After ([3]; Knee pain, Before 5/10): 0 | Pain level After ([3]; Lumbar radiculopathy, herniated disk and scatia, Before 8/10): 0 | Pain level After ([3]; Multiple Sclerois with pain in legs, Before 7/10): 0 | Pain level After ([3]; Peptic Ulcer with gnawing epigastric pain, Before 8/10): 0 | Pain level After ([3]; Plantar Fasciitis, Before 6/10): 0 | Pain level After ([3]; Reflex sympathetic dystophy, Before 6/10): 0 | other effects reported by patient ([3]; same patient): felt more awake, had a better mood, and could breathe easier | pain level after injection ([3]; same patient as E44, 6/10 before): 3/10 | low back pain level after injection ([3]; same patient, 6/10 low back pain, lumbar spinal stenosis, 4 ccs): 2/10 | pain after further injection ([3]; same patient, another 2 cc over only the left GH joint): disappearance of all pain | pain level after injection ([4]; 4/10 neck pain from cervical degenerative disc disease, 2 cc bilaterally s.c. over GH joints): 2/10 | pain after injection ([4]; 4/10 pain due to sacroiliac strain, 2 cc bilaterally s.c. over GH joints): disappearance of all pain | pain after injection ([4]; 5/10 back pain due to rupture of the annulus, 2 cc 1% lidocaine into GH joints bilaterally): no relief | pain level after injection ([4]; 6/10 mechanical low back pain before, 2 cc bilaterally into GH joints): about 3/10 | pain relief ([4]; 6/10 mechanical low back pain, 2 cc bilaterally into GH joints): about 50% | pain level after injection ([4]; 7/10 low back pain due to SI strain before, 2 cc into GH joints bilaterally): 4/10 | pain level after injection ([4]; 8/10 back pain with radiation down leg, lumbar radiculopathy, 2 cc bilaterally s.c. over GH joints): 1/10 | pain level after injection ([4]; 9/10 mechanical low back pain before, 2 cc bilaterally into GH joints, agent not given, heading: Injection of Lidocaine): 4/10 | pain after injection ([4]; lumbar facet arthropathy, s.c. over GH joints bilaterally): resolution of pain | follow-up of pain relief ([4]; same patient as E28): still pain free one week later | other effects stated by patient ([4]; same patient as E34): felt more awake, alert and had a sense of well-being | effect of unilateral injection over the GH joint (human patients [5]): seems to provide analgesia on the opposite side of the body | pain after injection (human patients [6]; 5/10 pain from lateral epicondylitis, 0.1 cc 2% lidocaine s.c. over lateral epicondyle): complete pain relief | pain after injection (human patients [6]; 5/10 pain from trochanteric bursitis, 0.1 cc 2% lidocaine bilaterally s.c. over trochanteric bursae): complete pain resolution | symptoms after injection (human patients [6]; 7/10 pain from Morton's neuroma, 0.1 cc 2% lidocaine s.c. on dorsal foot between metatarsal heads): complete resolution of symptoms | pain after injection (human patients [6]; 10/10 pain from sacroilitis, 0.1 cc 2% lidocaine s.c. over the sacroiliac joints): immediate pain cessation and return to full mobility | duration of complete pain relief (human patients [6]; same patient): 1 days | duration of complete pain resolution (human patients [6]; same patient): 3 weeks | duration of complete resolution of symptoms (human patients [6]; same patient): 2 weeks | pain relief still complete at time later (human patients [6]; same patient, magnets put over the two injection sites afterwards): ≥ 10 days

C[C@]12C=CC(=O)C=C1CC[C@H]1[C@@H]3C[C@@H](O)[C@](O)(C(=O)CO)[C@@]3(C)C[C@H](O)[C@@]12F [triamcinolone]
pain after injection ([3]; cervical stenosis 8/10 and lumbosacral strain 7/10, triamcinolone only into GH joints bilaterally): complete relief
